Consider three compounds from patent publication US10836727B2, “Crystal forms of lenvatinib” (Indena S.P.A., priority 2016, dated 2020).

The nature of series [1]: DVS analysis (percentage change in mass as function of relative humidity change). It counts as physicochemical. Conditions: for sorption and desorption of water (reversibility): methanesulfonate. The source says: DVS analysis, shown in FIG. 11, reports the percentage change in mass as of the relative humidity change.
The DVS analysis, shown in FIG. 22, reports the percentage change in mass as function of the relative humidity change.

Series [2] can be described thus: XRPD of the sample recovered at the end of DVS analysis. The format is physicochemical. Conditions: methanesulfonate. As to the method:
The X-ray powder diffractogram (XRPD) has been obtained using the instrument X′Pert PRO PANalytical with single scan, using Kα1 radiation. The diffractogram is measured in reflection mode in the range 3-40° 2θ.

With `COc1cc2nccc(Oc3ccc(NC(=O)NC4CC4)c(Cl)c3)c2cc1C(N)=O` [ACA-1 HT DRY, 4-[3-Chloro-4-(N′-cyclopropylureido)phenoxy]-7-methoxyquinoline-6-carboxamide methanesulfonate], the “sorption and desorption of water (reversibility)” value (“sorption and desorption of water” for short) in series [1] (DVS analysis) is recorded as “not very reversible”. The “diffractogram / crystal structure after DVS” value in series [2] was “quite amorphous but its crystal structure did not change”.

Turning to `COc1cc2nccc(Oc3ccc(NC(=O)NC4CC4)c(Cl)c3)c2cc1C(N)=O` [DMSO-2, 4-[3-Chloro-4-(N′-cyclopropylureido)phenoxy]-7-methoxyquinoline-6-carboxamide methanesulfonate], in series [1] (DVS analysis, compatible with the loss of 1 mol of DMSO), the “weight loss of the sample between the start and the end of analysis” value turned out to be 12.34%. In series [1] (DVS analysis), the “sorption and desorption of water” value is “not reversible”.

As for `COc1cc2nccc(Oc3ccc(NC(=O)NC4CC4)c(Cl)c3)c2cc1C(N)=O` [H2O-1, 4-[3-Chloro-4-(N′-cyclopropylureido)phenoxy]-7-methoxyquinoline-6-carboxamide methanesulfonate], in series [1] (DVS analysis), the “sorption and desorption of water” value was “reversible”. Moreover, the mass increased percentage in series [1] (DVS, between 40% and 80% RH of the absorption cycle) was determined as 10.9%. Also, in series [1] (from DVS mass increase between 40% and 80% RH), the hygroscopicity classification entry is given as “hygroscopic”. Also, the “diffractogram / crystal structure after DVS” value in series [2] was “did not show any important modification”.
